Assays:
[1] = system: UB/OC-1 cells; test: Western blot of STAT1, STAT3 and JAK2 phosphorylation; type: cell-based, mouse
[2] = system: Wistar rats; test: ABR threshold shifts, noise induced hearing loss (NIHL); type: in vivo, rat
Protocol: Male Wistar rats (150-250 gm) were used for this study under an animal care protocol approved by the Laboratory and Animal Care and Use Committee (SIU School of Medicine). Pre-treatment ABRs were performed. Animals were then treated according to the experimental paradigm. Prevention strategy: consisted of administration of ETA either intra-tympanic ally (IT) (250 μg/50 μl) or subcutaneously (sc) (3 mg/kg) or PBS (IT-50 μl or sc-1 ml) either 3 days or 7 days prior to noise exposure (NE).
Animals were exposed to noise (NE), and then provided ETA treatments either IT or SC at either 2 h or 24 h post noise injury. Post treatment ABR thresholds were determined at 21 days post noise exposure and cochleae were excised for morphological, molecular and biochemical studies. Cochleae used for RNA preparations were flushed immediately with RNA later and kept in RNA later for 24 h at 4° C. Those used for immunohistochemical studies were perfused and fixed with 4% paraformaldehyde, while those used for Scanning electron microscopy (SEM) were perfused and fixed with 2.5% glutaraldehyde. Cochleae used for whole mounts were decalcified for 7-10 days in 100 mM EDTA at room temperature.
Male Wistar rats were exposed to octave band noise at 122 dB centered at 16 kHz for 1 h under isofluorane anesthesia, with the 3 inch silicon tubes attached to the high frequency transducer resting in the middle ear cavity. This exposure typically results in a 30-50 dB temporary threshold shift (measured as an immediate pre-to-post noise exposure shift in ABR thresholds) across all frequencies; with slightly more elevation at those frequencies around 16 kHz and 20-40 dB permanent threshold shift measured at 21 days post noise exposure at all frequencies. Acoustic stimuli are calibrated using a cloth model rat and a Bruel & Kjaer Pulse System with a ½ inch free-field microphone (B&K model 4191). Baseline noise levels in the test chamber (with background test noise turned off) are typically measured below 20 dB SPL in the 4-40 kHz range.
Pre-treatment ABR thresholds were determined using the high frequency Intelligent Hearing Systems (IHS) on naive rats prior to any treatment or noise exposure for each ear. Animals were tested with a stimulus intensity series that was initiated at 0 dB sound pressure level (SPL) and reached a maximum at 90 dB SPL. The stimulus intensity levels were increased in 10 dB increments, and the evoked ABR waveforms were observed on a video monitor. The auditory stimuli included tone bursts at 8, 16, and 32 kHz with a 10 msec plateau and a 1 msec rise/fall time presented at a rate of 5/sec. Threshold was defined as the lowest intensity capable of evoking a reproducible, visually detectable response with two distinct waveforms and minimum amplitude of 0.5 μV.
Preconditioning of the TRPV1 receptor in the rat cochlea by oral administration of capsaicin is shown here to protect from NIHL. Male Wistar rats weighing 200-250 gms were used. ABRs from naïve rats were recorded. Rats were then treated with oral phosphate buffered saline (PBS—1 ml) or capsaicin (1 ml of 20 mg/ml) starting 24 hrs prior to NE, on the day of NE, and 24 hrs post NE. The final ABRs were recorded 21 days post NE. Cochleae were collected for various biochemical tests and immunohistochemistry. At least 6 animals were used per treatment group. NE caused an ABR threshold shift of 21.6±1.7, 35.5±1.9 and 43.9±2.3 dB threshold shift at 8, 16 and 32 kHz respectively. Oral capsaicin treatment completely protects from NIHL (3.9±1.4, 6.1±1.8 and 8.9±2.1 dB threshold shift at 8, 16 and 32 kHz respectively), there is no significant change in ABR threshold shift compared to control. […] Statistical significance was calculated using one way ANOVA with Tukey's post-hoc analyses, p<0.05 (FIG. 16.A.).
ABR measurements were conducted in naïve male Wistar rats. […]

[3] = system: rat cochlea; test: Immunolabelling of mid-modiolar cochlear sections, fluorescent intensity analyses; type: in vivo
Protocol: Cochleae were perfused with a 4% paraformaldehyde solution, cochleae were decalcified for 7-10 days in 120 mM EDTA, embedded them in paraffin and then sectioned the specimens [Mukherjea et al., 2010]. Slides were deparaffined, rehydrated and then stained with primary and secondary antibodies. Glass coverslips were mounted on the specimens with ProLong Diamond mounting medium. Images were obtained using a Leica confocal microscope (Buffalo Grove, IL).
Image J software was used to analyze the mean gray area for the various images. These values were then used to quantify the increase or decrease in % fluorescence intensity of the various regions of the samples compared to control.

[4] = capsaicin 2.5 μM 30 min and/or cisplatin 2.5 μM 45 min (FIG. 5.E)
[5] = oral capsaicin 24 hrs prior, day of and 24 hrs post NE, 21 days post NE

COc1cc(CNC(=O)CCCC/C=C/C(C)C)ccc1O [capsaicin, 8-methyl-N-vanillyl-trans-6-nonenamide]
JAK2 phosphorylation ([1]; 2.5 μM, time course): increased activation | p-STAT1 [1, 4]: 135.4±4% | p-STAT3 [1, 4]: 173±4% | p-STAT3/p-STAT1 ratio peak value ([1]; capsaicin 2.5 μM, reached in 45 min): ~130% | time of peak STAT1 Ser^727 phosphorylation ([1]; capsaicin 2.5 μM, returns to baseline by 120 min): 45 min | p-STAT3/p-STAT1 ratio ([1]; of control (FIG. 5.F)): 128±4.1% | Wave 1 amplitude versus sound intensity ([2]; capsaicin 5 mg/kg oral, ETA 1 mg/kg, noise exposure (FIG. 18.B)): partial restoration | NE threshold shift ([2]; intra-tympanic or oral capsaicin, 21 days after NE): abrogated | ABR threshold shift at 8 kHz [2, 5]: 3.9±1.4 dB | ABR threshold shift at 16 kHz [2, 5]: 6.1±1.8 dB | ABR threshold shift at 32 kHz [2, 5]: 8.9±2.1 dB | ABR threshold shift at 8 kHz ([2]; oral capsaicin alone, no NE): 1±1.1 dB | ABR threshold shift at 16 kHz ([2]; oral capsaicin alone, no NE): 1±1.1 dB | ABR threshold shift at 32 kHz ([2]; oral capsaicin alone, no NE): 3±1.6 dB | TRPV1, NOX3 and iNOS protein expression induced by cisplatin ([3]; capsaicin pre-treatment): significantly decreased | CB2 expression in three regions of the cochleae ([3]; capsaicin pretreatment before cisplatin): significantly increased the expression of CB2 | p-STAT3/p-STAT1 ratio in cochlear regions ([3]; oral capsaicin pretreatment, compared to cisplatin): significantly increased | CB2 labelling in the OHCs, SGs and SVA ([3]; single agent): increased CB2 labelling in all the three regions to an even greater extent | TRPV1, NOX3 and iNOS labelling in the OHCs, SG and SVA ([3]; single agent vs control): did not produce significant change | p-STAT3/p-STAT1 ratio in cochlear regions ([3]; single agent, 72 h, vs oral PBS): increased the p-STAT3/p-STAT1 ratio in all the three regions of the organ of Corti significantly

Source: patent US12162935B2, “Regimens, compositions and methods with capsaicin and TNF-alpha inhibitor” (priority 2018, dated 2024)
